This passage reports EC50, IC50 and outcome results from PubChem BioAssay AID179 (DTP/NCI, 2004).

In the experiment the test system is CEM cells HIV-1 protection, formazan growth assay. As to the kind of experiment: NCI AIDS Antiviral Assay. To be noted: for IC50: measured here: growth of uninfected CEM cells. In a few lines: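 Five concentrations of each compound were applied to infected and uninfected human CEM cells. Protection from HIV-1 was judged from growth measured with a soluble formazan assay.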

Where “and” joins values, the source holds several entries; their conditions need not be identical. Equal entries are not always repeated. Calls of active or inactive are those of the source.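 How the source made its calls: active means compounds giving half or more protection of infected cells from virus-caused growth loss, again on retest; inactive means the rest.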

In the case of `CC(=O)OC[C@]1(O)CC[C@@]23CC1C[C@@H]2CCC1C(C)(C)CCC[C@@]13C` (some centres not stated), the EC50 was above 20.9 µM and the IC50 was above 20.9 µM.

For `Clc1ccc(SSc2ccc(Cl)cc2)cc1`, the EC50 is above 200 µM; the concentration for half-maximal inhibition (IC50) is 3.31 µM and 5.13 µM.

For the compound `O=C(/C=C/c1ccccc1)CCC1C(=O)c2ccccc2C1=O`, the EC50 was above 23.4 µM and the IC50 was above 23.4 µM.

On to `COC(=O)CC(=O)OC1C[C@@H]2CCC3C(C)(C)CCC[C@]3(C)C23CC[C@@]1(C)C3` (some centres not stated), for which the EC50 is above 18.2 µM and the IC50 is above 18.2 µM.

Regarding `COc1ccccc1N/N=c1/c2n(-c3ccc(Cl)cc3)c(=S)n(-c3ccccn3)c1=NCCN=2`, the EC50 was above 200 µM and the IC50 is above 200 µM.

As for `COc1cc(OC)c(C2=NOC(n3c4ccccc4c4ccccc43)C2)c(OC)c1` (configuration not stated), the result was inactive.

Consider `N#CN=C(N)NC(=O)/C=C/C=C/c1ccc(Cl)cc1`, for which the result was inactive.

For `O=C(c1ccccc1)N1OCCCc2ccccc21`, the EC50 was above 200 µM and the half-inhibitory concentration (IC50) came to 195 µM.

For the compound `Cc1cc2c(cc1C)NC(=O)CC(c1ccccc1)=N2`, the EC50 is above 200 µM and the half-maximal inhibitory concentration (IC50) was above 200 µM.

Consider `CCc1cccc(C(C)C)c1C1C(=O)C(=O)N(c2nc3ccccc3s2)C(=O)C1=O`, for which the outcome was inactive.

On to `COc1ccc(NC(=O)CSc2nc(C)nc3c2sc(=S)n3-c2ccccc2)cc1`, for which the EC50 is above 200 µM and the IC50 was above 200 µM.

In the case of `C#C/C=C\CCCC/C=C\C#CC#CCCCC#CC#C[C@H](COS(=O)(=O)O)OS(=O)(=O)O`, the half-maximal effective concentration (EC50) is 30.9 µM and the IC50 was above 200 µM.

In the case of `CC1(C)OC2C3CC(C2O1)C1C3C2(Cl)CC1(Cl)C(Cl)=C2Cl` (configuration not stated), the result was inactive.

In the case of `COC(=O)CC(C)(NS(=O)c1ccc(C)cc1)c1ccccc1` (configuration not stated), the EC50 is above 200 µM and the IC50 came out at 120 µM.

In the case of `O=C(NNC(=O)c1ccccc1O)c1cccc(Br)c1`, the EC50 was above 200 µM and the IC50 turned out to be 6.46 µM.

`O=C(NC1C=Nc2ccc([N+](=O)[O-])cc2NC1=O)c1cc(Cl)cc([N+](=O)[O-])c1` (configuration not stated): the EC50 was above 447 µM and the IC50 stood at 155 µM.

With `NC(=O)C1(c2ccccc2)Nc2ccccc2S1` (configuration not stated), the EC50 is above 977 µM and the 50% inhibitory concentration (IC50) turned out to be 102 µM.

Consider `CCCN(CCCC(NC(C)=O)C(=O)NCc1ccccc1)C(=O)N(C)N=O` (configuration not stated), for which the EC50 was above 174 µM and the IC50 is above 174 µM.

For the compound `COC(=O)CC1C(C(C)(OC)OC)C(=O)N1[Si](C)(C)C(C)(C)C` (configuration not stated), the EC50 is above 363 µM and the half-maximal inhibitory concentration (IC50) is above 363 µM.

As for `Cc1cc(O)c2c(c1)OC1(C)CCC3C(C)(C)CCCC34COC2C14` (configuration not stated), the EC50 is above 55 µM and the IC50 amounted to 1.58 µM.

`O=C1c2ccccc2-c2c1c1ccccc1c(=O)n2-c1ccccc1`: the EC50 is above 30.9 µM and the IC50 was above 30.9 µM.

Regarding `CC1=C(CO)C(=O)O[C@@H]([C@@H](CO)[C@H]2CCC3C4C[C@@H](O)[C@@]5(O)CC=CC(=O)[C@]5(C)C4CC[C@@]32C)C1` (some centres not stated), the outcome was inactive.

For `COc1ccc(-n2c(C)nc3ccc(N=Cc4ccccc4)cc3c2=O)cc1`, the EC50 is above 200 µM and the concentration for half-maximal inhibition (IC50) was above 200 µM.

Take `CC(C)c1ccc(S(=O)(=O)c2ccc([N+](=O)[O-])cc2[N+](=O)[O-])cc1`: the EC50 is above 200 µM and the IC50 was determined as 0.851 µM.

In the case of `CC(=O)NC(C)c1ccc(N=NN2CCCC2)cc1` (configuration not stated), the EC50 was above 200 µM and the 50% inhibitory concentration (IC50) amounted to 79.4 µM.

With `COC(=O)C(N)C(C)c1c[nH]c2ccccc12` (configuration not stated), the EC50 was above 200 µM and the IC50 is above 200 µM.

As to `COC(=O)/C=C/C1C(C(=O)OC)C2(C(=O)OC)CCC1(C(=O)OC)N2` (configuration not stated), the result was inactive.

As for `COc1cc2c(c3c1[C@@H](O)[C@@H](C)[C@@H](C)O3)C=CC(C)(C)O2`, the EC50 was above 200 µM and the IC50 is 75.9 µM.

Take `Cc1ccc(N2CCC3(CC2)OCCO3)cc1`: the result was inactive.

As to `COc1ccc2c(c1)[C@@H]1c3cc(OC)c(OC)cc3CCN1CCC2`, the EC50 was above 200 µM and the half-maximal inhibitory concentration (IC50) is above 200 µM.

With `C#CC1(O)CCC2C3CCc4cc(Oc5nc(F)nc(-c6c7cc8ccccc8cc7c(SCC)n6CCC)n5)ccc4C3CCC21C` (configuration not stated), the outcome was inactive.

As for `N#CC(C#N)=C1NC(=O)C(c2ccccc2)C(=O)N1` (configuration not stated), the result was inactive.

Regarding `CC(=O)SCC1OC(n2cc(C)c(=O)[nH]c2=O)CC1O` (configuration not stated), the EC50 is above 200 µM and the IC50 is above 200 µM.

On to `O=C(CCCN1CCC(O)(c2ccc(Cl)cc2)CC1)c1ccc(F)cc1`, for which the EC50 is above 132 µM.

Take `O=C1CC(NC(=O)C(F)(F)F)c2c(Br)sc(N3CCOCC3)c21` (configuration not stated): the EC50 was above 200 µM and the 50% inhibitory concentration (IC50) is above 200 µM.

Consider `CCOc1ccc(N2CC(=O)N3CCCC(C)N3C(=O)C2)cc1` (configuration not stated), for which the EC50 is above 200 µM and the IC50 turned out to be 170 µM.

Take `CCC(O)(Cc1ccc(OC)cc1)c1ccc(OC)cc1` (configuration not stated): the EC50 was above 200 µM and the IC50 was found to be 123 µM.

In the case of `CN1C(=O)N(c2ccccc2)C2(CCN(CC3COc4ccccc4O3)CC2)C1=O` (configuration not stated), the EC50 is above 200 µM and the IC50 is above 200 µM.

With `CCCc1cc(=O)oc2c3c(c4c(c12)OC(C)(C)C=C4)O[C@@H](C)[C@H](C)[C@@H]3O[Si](C)(C)C(C)(C)C`, the EC50 is above 200 µM and the IC50 was above 200 µM.

As to `COc1cc(C(=O)CBr)c(OC)cc1C`, the EC50 is above 200 µM and the IC50 was above 200 µM.

In the case of `Cc1cn(C2CC(CCCO)C(CO)O2)c(=O)[nH]c1=O` (configuration not stated), the EC50 was above 871 µM and the IC50 was above 871 µM.

For `NC1=NS(=O)(=O)Nc2nn(-c3ccccc3)nc21`, the EC50 was above 339 µM and the IC50 is above 339 µM.

Take `Cc1cccc(NC(=O)Cc2nc3ccccc3s2)c1C`: the EC50 is above 17.8 µM and the 50% inhibitory concentration (IC50) was above 17.8 µM.

With `O=c1[nH]c2nc3ccccc3c(=O)n2/c1=C/c1ccco1`, the EC50 is above 200 µM and the IC50 was above 200 µM.

As to `CCCCC(=S)SSC(C)(C)C`, the EC50 is above 200 µM and the IC50 turned out to be 55 µM.

Turning to `CCOC(=O)CC[C@H](NC(=O)N[C@H](C)c1ccccc1)C(=O)OCC`, the EC50 is above 200 µM and the half-maximal inhibitory concentration (IC50) was 39.8 µM.

Turning to `CC(=O)C1(N=Nc2ccc(S(=O)(=O)Nc3onc(C)c3C)cc2)CCOC1=O` (configuration not stated), the EC50 is above 200 µM and the IC50 is above 200 µM.

Consider `NC(=O)CNC(=O)c1ccccc1SC(=O)CCCCC[n+]1ccccc1`, for which the 50% effective concentration (EC50) is 1.41 µM and the IC50 came out at 38 µM.

For the compound `Nc1nc2n[nH]nc2c(=O)[nH]1`, the EC50 is above 89.1 µM and the 50% inhibitory concentration (IC50) was determined as 0.302 µM.

Regarding `CCN(c1ccc(Br)cc1)c1c(Br)c(=O)nc2ccccn12`, the EC50 was above 525 µM and the IC50 was 97.7 µM.

Take `Brc1ccc2nncc(N3CC3)c2c1`: the outcome was inactive.

As to `O=c1cc2ccccc2nn1Cc1ccccc1Cl`, the EC50 is above 251 µM and the concentration for half-maximal inhibition (IC50) is above 251 µM.

Take `CC(NC(=O)C(C)C(=O)NCc1ccc(C(F)(F)F)cc1)C(N)=O` (configuration not stated): the EC50 was above 200 µM and the IC50 was 115 µM.

With `O=C(O)C/C=C(\C(=O)O)N1C(=O)c2ccccc2C1=O`, the result was inactive.

Turning to `CC(CCC(=O)O)[C@H]1CCC2[C@@H]3C(=O)C[C@@H]4CC(O)CC[C@]4(C)C3CC[C@@]21C` (some centres not stated), the outcome was inactive.

With `c1ccc(-c2nc3c(N4CCOCC4)ncnc3o2)cc1`, the EC50 is above 25.7 µM and the IC50 is above 25.7 µM.

`S=c1c2cn[nH]c2nc2scc(-c3ccc(Cl)cc3)n12`: the EC50 was above 200 µM and the IC50 amounted to 13.2 µM.

Turning to `CN(C)c1ccc(/C=C(\C#N)c2ccccc2)cc1`, the EC50 was above 5.89 µM.

As to `O=c1ccc(-c2ccc(-n3ccnc3)cc2)nn1CCO`, the EC50 is above 200 µM and the IC50 was above 200 µM.

With `COc1cc(C2SCC(=O)N2NC(=O)c2ccc(NC(C)=O)cc2)cc(OC)c1OC` (configuration not stated), the EC50 is above 58.9 µM and the IC50 is above 58.9 µM.

As to `OCC1(C(F)(F)F)OC(n2cncn2)CC1O` (configuration not stated), the EC50 is above 200 µM and the half-maximal inhibitory concentration (IC50) was above 200 µM.

Regarding `COC(=O)N1CCC(Sc2ccccc2)C2(CCOC(=O)c3ccccc3)CCC(O)C12` (configuration not stated), the EC50 was above 40.7 µM and the concentration for half-maximal inhibition (IC50) was above 40.7 µM.

Consider `CCN(CC)CCOC(=O)/C=C/c1ccccc1`, for which the result was inactive.

Regarding `CCN(CC)CCN=Cc1c(O)c(O)c(C(C)C)c2cc(C)c(-c3c(C)cc4c(C(C)C)c(O)c(O)c(C=NCCN(CC)CC)c4c3O)c(O)c12`, the EC50 was above 200 µM and the IC50 was found to be 1.02 µM.

For the compound `Clc1cccc2[nH]c(-c3ccncc3)nc12`, the EC50 was above 200 µM and the 50% inhibitory concentration (IC50) was above 200 µM.

For `CCCCCCCCCCOCCC(=O)OCC1OC(n2cc(C)c(=O)[nH]c2=O)CC1N=[N+]=[N-]` (configuration not stated), the outcome was active and the IC50 stood at 33.9 µM.

Take `CC(C)(C)c1ccc(OCCOc2ccc(C(C)(C)C)cc2N)c(N)c1`: the EC50 is above 200 µM and the IC50 was above 200 µM.

In the case of `CC(C)(C)OC(=O)C1C(=O)C(C(=O)OC(C)(C)C)C23CCCCCCCCCCC12C(C(=O)OC(C)(C)C)C(=O)C3C(=O)OC(C)(C)C` (configuration not stated), the EC50 was above 18.6 µM and the half-inhibitory concentration (IC50) was above 18.6 µM.

Consider `O=C1/C(=C/c2ccccc2)CN(C(=O)Oc2ccccc2)C/C1=C\c1ccccc1`, for which the outcome was inactive.

For the compound `COc1cc(Br)c(C=Nc2cccc3ccc(OS(=O)(=O)c4ccc([N+](=O)[O-])cc4)cc23)cc1OC`, the EC50 was above 17.4 µM and the IC50 is above 17.4 µM.

For the compound `O=c1[nH]cnc2sc(Nc3ccccc3)nc12`, the outcome was inactive.

Turning to `COC(=O)c1cc(C(=CCCCCO)c2cc(Cl)c(OC)c(C(=O)OC)c2)cc(Cl)c1OC`, the EC50 is above 200 µM and the half-inhibitory concentration (IC50) was found to be 23.4 µM.

Consider `O=C1OC(c2cccc3c(F)cccc23)c2ccccc21` (configuration not stated), for which the outcome was inactive.

On to `C=C1C(=O)OC2/C=C(\C=O)CC/C=C(\C)C(O)C[C@@H]12` (some centres not stated), for which the EC50 was above 200 µM and the half-inhibitory concentration (IC50) was determined as 2.95 µM.

Take `CC12CCC(=O)N1c1cncnc1N2` (configuration not stated): the EC50 was above 1320 µM and the IC50 was above 1320 µM.
